# Experiments:
# Mouse hepatocytes = assay: drug levels in hepatocyte suspensions by LC/MS/MS
# [1] = test system: brain anandamide and 2-AG levels; assay: brain endocannabinoid levels by LC/MS; conditions: SHR and WKY, bolus i.p. doses, 1 h
# human recombinant FAAH = molecular target: T1, human recombinant FAAH (Homo sapiens, UniProt O00519); assay: biochemical
# T1 sequence (O00519 1-579): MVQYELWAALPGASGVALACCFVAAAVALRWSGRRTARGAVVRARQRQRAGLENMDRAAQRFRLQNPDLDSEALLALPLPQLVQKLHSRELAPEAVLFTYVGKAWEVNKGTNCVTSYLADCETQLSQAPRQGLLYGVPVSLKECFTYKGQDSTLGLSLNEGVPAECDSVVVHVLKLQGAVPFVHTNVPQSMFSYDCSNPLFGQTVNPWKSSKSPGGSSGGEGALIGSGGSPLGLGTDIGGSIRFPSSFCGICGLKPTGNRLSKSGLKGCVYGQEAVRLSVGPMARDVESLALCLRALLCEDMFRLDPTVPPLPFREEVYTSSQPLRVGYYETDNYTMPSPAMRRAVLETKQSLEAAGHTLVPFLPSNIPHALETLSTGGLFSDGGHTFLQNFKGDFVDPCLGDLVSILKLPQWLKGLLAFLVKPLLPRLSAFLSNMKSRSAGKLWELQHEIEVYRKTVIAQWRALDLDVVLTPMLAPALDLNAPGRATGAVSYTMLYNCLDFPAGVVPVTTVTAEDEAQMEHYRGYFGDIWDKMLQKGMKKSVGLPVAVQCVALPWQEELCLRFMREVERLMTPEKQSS
# SHR = assay: cardiovascular effects under ganglionic blockade; conditions: 1 mg/kg, hexamethonium + vasopressin + isoproterenol
# CB2 receptors = molecular target: T2, CB2 receptors (Rattus norvegicus, UniProt Q9QZN9); assay: radioligand displacement, [3H]CP,55940, rat spleen membranes
# T2 sequence (Q9QZN9 1-360): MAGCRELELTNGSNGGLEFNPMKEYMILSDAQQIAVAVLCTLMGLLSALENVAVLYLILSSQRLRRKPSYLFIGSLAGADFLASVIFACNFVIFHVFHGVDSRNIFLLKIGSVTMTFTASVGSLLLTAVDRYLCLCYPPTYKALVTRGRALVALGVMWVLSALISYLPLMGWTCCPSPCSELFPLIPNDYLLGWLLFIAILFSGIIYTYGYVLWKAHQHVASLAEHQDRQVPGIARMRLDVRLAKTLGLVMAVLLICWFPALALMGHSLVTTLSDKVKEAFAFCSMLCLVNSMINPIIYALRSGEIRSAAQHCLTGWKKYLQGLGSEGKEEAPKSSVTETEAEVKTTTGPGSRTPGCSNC
# [2] = test system: anandamide levels in hepatocytes; assay: anandamide levels in hepatocytes; format: cell-based, mouse; conditions: 100 nM, dense suspension 40 mg/mL
# FAAH [3] = molecular target: T3, FAAH (Mus musculus, UniProt O08914); format: cell-based; conditions: 100 nM
# T3 sequence (O08914 1-579): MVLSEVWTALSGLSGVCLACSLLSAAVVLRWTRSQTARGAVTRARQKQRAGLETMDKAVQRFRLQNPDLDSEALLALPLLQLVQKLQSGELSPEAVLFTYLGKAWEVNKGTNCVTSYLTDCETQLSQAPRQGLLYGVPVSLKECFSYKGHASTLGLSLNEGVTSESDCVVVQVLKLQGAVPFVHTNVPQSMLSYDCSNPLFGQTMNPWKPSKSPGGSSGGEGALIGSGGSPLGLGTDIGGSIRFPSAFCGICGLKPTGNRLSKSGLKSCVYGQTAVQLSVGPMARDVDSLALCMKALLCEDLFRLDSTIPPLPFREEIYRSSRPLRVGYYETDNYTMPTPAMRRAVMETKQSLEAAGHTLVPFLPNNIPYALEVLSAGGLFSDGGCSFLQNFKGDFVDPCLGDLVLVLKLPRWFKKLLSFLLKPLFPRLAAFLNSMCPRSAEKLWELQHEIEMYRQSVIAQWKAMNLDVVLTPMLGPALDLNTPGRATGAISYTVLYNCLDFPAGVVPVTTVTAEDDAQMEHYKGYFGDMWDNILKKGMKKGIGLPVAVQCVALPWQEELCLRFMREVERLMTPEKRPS
# [4] = test system: [3H]anandamide uptake by cultured CCF-STTG1 astrocytoma cells; assay: anandamide transport assay; conditions: concentrations up to 20 μmol/L
# SHR and WKY rats [5] = assay: plasma norepinephrine; format: in vivo, rat; conditions: 1 mg/kg i.v.
# SHR and WKY rats [6] = assay: hemodynamic analysis with pressure-volume microcatheter; format: in vivo, rat; conditions: 1 mg/kg i.v., 20 min
# CB1 receptor = CB1 receptor (Rattus norvegicus, UniProt P20272); assay: radioligand displacement, [3H]CP,55940, rat forebrain membranes
# Chain of CB1 receptor (P20272 whole entry): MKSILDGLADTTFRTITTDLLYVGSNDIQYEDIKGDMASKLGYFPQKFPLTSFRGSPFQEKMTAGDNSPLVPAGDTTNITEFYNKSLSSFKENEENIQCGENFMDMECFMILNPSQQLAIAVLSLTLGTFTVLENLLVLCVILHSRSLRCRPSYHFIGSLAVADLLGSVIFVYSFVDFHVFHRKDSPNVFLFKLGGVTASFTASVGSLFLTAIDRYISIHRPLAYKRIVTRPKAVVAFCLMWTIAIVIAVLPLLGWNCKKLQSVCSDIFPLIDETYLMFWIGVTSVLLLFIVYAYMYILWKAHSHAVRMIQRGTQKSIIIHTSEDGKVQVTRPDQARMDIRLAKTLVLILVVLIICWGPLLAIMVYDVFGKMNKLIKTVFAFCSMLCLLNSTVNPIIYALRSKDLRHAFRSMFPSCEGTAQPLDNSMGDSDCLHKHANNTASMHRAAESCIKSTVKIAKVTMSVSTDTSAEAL
# FAAH [7] = molecular target: T3, FAAH; assay: in vivo; format: in vivo
# other serine hydrolases = assay: competitive activity-based protein profiling, ex vivo after i.p. dosing; format: in vivo, mouse; conditions: 1 h
# SHR and WKY rats [8] = assay: non-fasting blood glucose in rats; conditions: 1 mg/kg i.p.
compound,measurement,setting,value
"O=S(=O)(F)CCCCCc1ccc(O)cc1 [AM3506, 5-(4-hydroxyphenyl)pentanesulfonyl fluoride]",recovery of drug from cell-free medium,"Mouse hepatocytes; 0 to 30 min, no hepatocytes",remained constant
same,"drug level in cell pellets, dense hepatocyte suspension","Mouse hepatocytes; 100 nM, 40 mg/mL",below threshold
same,"drug level in medium, dense hepatocyte suspension","Mouse hepatocytes; 100 nM, 40 mg/mL",rapidly depleted from the medium
same,free drug (parent ion) still present in cell-free supernatant,"Mouse hepatocytes; dilute hepatocyte suspension 1 mg/mL, 100 nM, 10 min, % of drug added at 0 min",50–55%
same,brain 2-AG levels,[1],remained unaffected
same,brain anandamide levels,[1],parallel increases
same,IC50,human recombinant FAAH,48 nM
same,reduction of the bradycardia elicited by AM3506 under ganglionic blockade,SHR,74.0±7.7%
same,reduction of the hypotension elicited by AM3506 under ganglionic blockade,SHR,89.6±3.6%
same,Ki,CB2 receptors,192 nM
same,anandamide levels in hepatocytes,[2],remained unchanged
same,"FAAH activity in cells, dense hepatocyte suspension",FAAH [3]; 40 mg/mL,no measurable change
same,"FAAH activity in cell pellet, dilute hepatocyte suspension","FAAH [3]; 30 min, 1 mg wet cell weight/mL",nearly completely blocked
same,effect on anandamide transport,[4],did not affect
same,plasma norepinephrine after treatment,"SHR and WKY rats [5]; WKY, baseline 198±11, remained unaffected",167 ± 35 pg/mL
same,reduction of plasma norepinephrine,"SHR and WKY rats [5]; anesthetized SHR, 30 min",82±5%
same,plasma norepinephrine after treatment,"SHR and WKY rats [5]; anesthetized SHR, 30 min, […]",53 ± 12 pg/mL
same,cardiac contractility (ESPVR),SHR and WKY rats [6]; SHR,marked decrease
same,cardiac output (CO),SHR and WKY rats [6]; SHR,decreases
same,dP/dtmax,SHR and WKY rats [6]; SHR,decreases
same,left ventricular end-systolic pressure (LVESP),SHR and WKY rats [6]; SHR,decreases
same,"LVESP, dP/dtmax, TPR and CO",SHR and WKY rats [6]; normotensive WKY,No changes
same,Ki,CB1 receptor,5770 nM
same,"ID50, inhibition of brain FAAH activity","FAAH [7]; mouse brain, ex vivo",0.10 mg/kg
same,FAAH inhibitory activity in liver,"FAAH [7]; mouse liver, doses up to 1 mg/kg",devoid of substantial FAAH inhibitory activity
same,suppression of FAAH activity in brain,"FAAH [7]; oral, 1 mg/kg, brain",90±0.4%
same,suppression of hepatic FAAH activity,"FAAH [7]; oral, 1 mg/kg, liver",13±2.6%
same,activity of other serine hydrolases in brain (ABPP),"other serine hydrolases; mouse brain, 0.1 mg/kg i.p.",no change
same,liver unidentified ~58kD protein activity (ABPP),"other serine hydrolases; mouse liver, 1 mg/kg i.p.",partial inhibition
same,non-fasting blood glucose after treatment,"SHR and WKY rats [8]; SHR, from 97.8±5.6",96.8 ± 2.9 mg/dL
same,non-fasting blood glucose after treatment,"SHR and WKY rats [8]; WKY, from 114.5±5.3",108.2 ± 4.5 mg/dL
